Broadly, the EC50 is the concentration needed to bring the measured effect to its halfway point.

45 compounds from patent US8110681B2, “Compounds for the treatment of spinal muscular atrophy and other uses” (The United States of America as represented by the …, priority 2006, dated 2012) can be followed below.

Read-outs that look alike come from different tables or passages of the source.

The subject of the assay is SMN2-linked luciferase-reporter gene construct. Put plainly: SMN splice reporter assay (SMN2-linked luciferase reporter, Example 10). In kind it is cell-based. Conditions: for maximal fold induction: read-out: SMN Splice Reporter Assay (Example 10) Avg MaxFold Increase. In outline: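 Values are fold-increase in luciferase signal relative to baseline cells without compound. The cervical carcinoma line used holds a fusion of alternatively spliced SMN2 sequence and luciferase. Readable frame, and thus signal, arises only with exon 7-including splicing.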
(A reporter such as luciferase makes a cellular process visible.)

Where [1] appears, read: maximum fold increase of reporter signal, average.
Setting [2] is: SMN2-linked luciferase reporter, average.
Where [3] appears, read: SMN2-linked luciferase reporter, average maximum fold increase.

In the case of `CC(C(=O)O)c1ccc(N2Cc3c(cccc3-c3cccs3)C2=O)cc1` (stereo not shown) [ALB-112225], the maximal fold induction under setting [1] stood at 1.07.

`COc1ccc(-c2ccc3c(c2)CN(c2ccc(C(C)C(=O)O)cc2)C3=O)cc1` (stereo not shown) [ALB-111892] returned an EC50 under setting [2] of 4.31 µM. For the same compound, the maximal fold induction under setting [1] amounted to 1.46.

With `CNC(=O)C(C)c1ccc(N2Cc3ccccc3C2=O)cc1` (stereo not shown) [ALB-112079], under setting [1], the maximal fold induction worked out at 1.14.

For `CC(C(=O)OC(C)(C)C)c1ccc(N2Cc3cccc(C#N)c3C2=O)cc1` (stereo not shown) [ALB-112472], under setting [1], the maximal fold induction was 1.12.

Take `COCCOc1ccc2c(c1)C(=O)N(c1ccc(C(C)C(=O)O)cc1)C2` (stereo not shown) [ALB-115071]: the response under setting [2] was half-maximal at 0.824 µM (EC50). The maximal fold induction under setting [1] is 1.39.

For `CC(C(=O)OC(C)(C)C)c1ccc(N2Cc3ccc(Nc4ccccc4)cc3C2=O)cc1` (stereo not shown) [ALB-112168], under setting [1], the maximal fold induction was determined as 1.15.

Under setting [2], `CC(C)=Cc1ccc2c(c1)C(=O)N(c1ccc(C(C)C(=O)O)cc1)C2` (stereo not shown) [ALB-115425] gave an EC50 of 0.018 µM. Further, the maximal fold induction under setting [1] is 1.95.

Take `CCNC(=O)C(C)c1ccc(N2Cc3ccccc3C2=O)cc1` (stereo not shown) [ALB-112073]: the maximal fold induction under setting [1] turned out to be 1.18.

The compound `CC(C(=O)O)c1ccc(N2Cc3cc(Cl)ccc3C2=O)cc1` (stereo not shown) [ALB-111762] gave an EC50 under setting [2] of 0.358 µM. The maximal fold induction under setting [1] was 1.38.

The compound `COc1cccc2c1CN(c1ccc(C(C)C(=O)OC(C)(C)C)cc1)C2=O` (stereo not shown) [ALB-111894] had a 50% effective concentration (EC50) under setting [2] of 3.16 µM. Further, under setting [1], the maximal fold induction is 1.29.

Regarding `Cc1cc(N2Cc3ccccc3C2=O)ccc1C(C)C(=O)O` (stereo not shown) [ALB-112485], under setting [1], the maximal fold induction was found to be 1.3.

In the case of `Cc1ccc(-c2cccc3c2CN(c2ccc(C(C)C(=O)O)cc2)C3=O)cc1` (stereo not shown) [ALB-112221], the maximal fold induction under setting [1] was determined as 1.33.

`CC(C(=O)OC(C)(C)C)c1ccc(N2Cc3ccccc3C2=O)cc1` (stereo not shown) [ALB-111738] gave an EC50 under setting [2] of 2.29 µM. Besides, under setting [1], the maximal fold induction is 1.17.

Under setting [2], `CC(C)c1ccc(N2Cc3cccc(Br)c3C2=O)cc1` [ALB-115801] displayed a concentration for a half-maximal effect (EC50) of 0.144 µM. Besides, under setting [1], the maximal fold induction was determined as 1.45.

`CC(C)c1ccc(N2Cc3cc(N(C)C)ccc3C2=O)cc1` [ALB-117752]: the midpoint of the response under setting [2], the EC50, lay at 0.042 µM. Further, the maximal fold induction under setting [1] was 1.38.

The compound `CC(C)(C)c1ccc(N2Cc3ccc(Br)cc3C2=O)cc1` [ALB-115583] had an EC50 under setting [2] of 0.184 µM. The maximal fold induction under setting [1] was found to be 1.37.

With `CC(C(=O)OC(C)(C)C)c1ccc(N2Cc3ccccc3C2=O)c(-c2cccnc2)c1` (stereo not shown) [ALB-112172], the maximal fold induction under setting [1] is 1.04.

Under setting [2], `CC(C)(C)c1ccc(N2Cc3ccccc3C2=O)cc1` [ALB-114936] registered an EC50 of 0.131 µM. In addition, under setting [1], the maximal fold induction is 1.41.

Consider `C=Cc1ccc2c(c1)CN(c1ccc(C(C)C(=O)OC(C)(C)C)cc1)C2=O` (stereo not shown) [ALB-113100], for which, under setting [2], the 50% effective concentration (EC50) came out at 0.101 µM. Moreover, the maximal fold induction under setting [1] was determined as 1.05.

On to `CC(=O)Nc1ccc2c(c1)C(=O)N(c1ccc(C(C)C)cc1)C2` [ALB-118157], for which, under setting [2], the concentration giving a half-maximal response (EC50) was determined as 0.203 µM. The maximal fold induction under setting [3] worked out at 1.51.

In the case of `O=C1c2ccccc2CN1c1ccc(C2CC2)cc1` [ALB-115802], under setting [2], the EC50 was 0.061 µM. The maximal fold induction under setting [3] came out at 1.28.

`CCOCc1ccc2c(c1)C(=O)N(c1ccc(C(C)C(=O)O)cc1)C2` (stereo not shown) [ALB-114742] had an EC50 under setting [2] of 0.042 µM. For the same compound, the maximal fold induction under setting [1] stood at 1.58.

In the case of `CC(C(=O)OC(C)(C)C)c1ccc(N2Cc3cccc(-c4cccs4)c3C2=O)cc1` (stereo not shown) [ALB-112154], the maximal fold induction under setting [1] was determined as 1.11.

With `COc1cccc2c1CN(c1ccc(C(C)C(=O)O)cc1)C2=O` (stereo not shown) [ALB-111895], under setting [1], the maximal fold induction turned out to be 1.15.

With `COCC(C)(C)c1ccc(N2Cc3ccc(OC)cc3C2=O)cc1` [ALB-115706], a half-maximal response under setting [2] (EC50) required 0.66 µM. Under setting [1], the maximal fold induction stood at 1.26.

For the compound `CC(C)c1ccc(N2Cc3ccc(OC4CCCC4)cc3C2=O)cc1` [ALB-116077], the maximal fold induction under setting [1] was 1.18.

On to `CCCC1c2ccccc2C(=O)N1c1ccc(C(C)C(=O)O)cc1` (stereo not shown) [ALB-111795], for which the EC50 under setting [2] was 25.8 µM. In addition, the maximal fold induction under setting [1] was 1.41.

Turning to `O=C1c2cc(Br)ccc2CN1c1ccc(C2CCCCC2)cc1` [ALB-115590], the maximal fold induction under setting [1] was 1.11.

`COc1cccc2c1C(=O)N(c1ccc(C(C)C)cc1)C2` [ALB-117748]: the EC50 under setting [2] was 0.166 µM. The maximal fold induction under setting [1] worked out at 1.34.

The compound `Cc1ccc(-c2ccc3c(c2)C(=O)N(c2ccc(C(C)C(=O)O)cc2)C3)cc1` (stereo not shown) [ALB-112447] came in with a concentration for a half-maximal effect (EC50) under setting [2] of 2.02 µM. The maximal fold induction under setting [1] stood at 1.27.

Consider `CC(C(=O)O)c1ccc(N2Cc3cccc(N)c3C2=O)cc1` (stereo not shown) [ALB-112062a], for which the 50% effective concentration (EC50) under setting [2] worked out at 0.329 µM. Further, the maximal fold induction under setting [1] was found to be 1.41.

Compound `C/C=C(\C)c1ccc2c(c1)C(=O)N(c1ccc(C(C)C(=O)O)cc1)C2` (stereo not shown) [ALB-114087] came in with an EC50 under setting [2] of 0.226 µM. Further, the maximal fold induction under setting [1] is 1.88.

For `CCCc1ccc(N2Cc3ccc(OC)cc3C2=O)cc1` [ALB-115708], under setting [1], the maximal fold induction is 1.1.

On to `COCCc1ccc(N2Cc3ccc(OC)cc3C2=O)cc1` [ALB-115217], for which the maximal fold induction under setting [1] is 1.26.

As for `CC(C(=O)O)c1ccc(N2Cc3ccccc3C2=O)cc1-c1ccco1` (stereo not shown) [ALB-112160], the maximal fold induction under setting [1] came to 1.02.

Regarding `CC(C(=O)OC(C)(C)C)c1ccc(N2Cc3ccccc3C2=O)c(-c2ccccc2)c1` (stereo not shown) [ALB-112163], the maximal fold induction under setting [1] came to 1.03.

Consider `COCC(C)c1ccc(N2Cc3ccc(C4CCCC4)cc3C2=O)cc1` (stereo not shown) [ALB-114845], for which the maximal fold induction under setting [1] worked out at 1.15.

Consider `CC(C(=O)O)c1ccc(N2Cc3ccc(CN4CCOCC4)cc3C2=O)cc1` (stereo not shown) [ALB-114438], for which the 50% effective concentration (EC50) under setting [2] came out at 1.91 µM. Besides, the maximal fold induction under setting [1] is 1.27.

The compound `CC(C)Cc1ccc2c(c1)C(=O)N(c1ccc(C(C)C)cc1)C2` [ALB-116245] showed an EC50 under setting [2] of 0.219 µM. Moreover, the maximal fold induction under setting [1] is 1.36.

`COc1cc2c(cc1OC)C(=O)N(c1ccc(C(C)C)cc1)C2` [ALB-117672] came in with an EC50 under setting [2] of 0.319 µM. Moreover, the maximal fold induction under setting [1] turned out to be 1.47.

Turning to `CCc1ccc2c(c1)C(=O)N(c1ccc(C(C)C(=O)OC(C)(C)C)cc1)C2` (stereo not shown) [ALB-113211], the EC50 under setting [2] was 0.786 µM. For the same compound, the maximal fold induction under setting [1] came to 1.37.

For the compound `CC(C)c1ccc(N2Cc3ccc(NC(=O)N(C)C(C)C)cc3C2=O)cc1` [ALB-118899], the maximal fold induction under setting [3] turned out to be 1.08.

As to `CC(C)c1ccc(N2Cc3ccc(N4CCCCC4)cc3C2=O)cc1` [ALB-116418], the maximal fold induction under setting [1] stood at 1.15.

Take `CC(C(=O)OC(C)(C)C)c1ccc(N2Cc3cccc(Cl)c3C2=O)cc1` (stereo not shown) [ALB-111783]: under setting [2], the EC50 came to 1.56 µM. Besides, the maximal fold induction under setting [1] worked out at 1.13.

In the case of `CC(C)Oc1ccc2c(c1)CN(c1ccc(C(C)C(=O)O)cc1)C2=O` (stereo not shown) [ALB-113834], under setting [1], the maximal fold induction amounted to 1.1.
